Among the test systems are HCC-2998 colon; NCI-H522 lung; UO-31 renal; PC-3 prostate; HL-60(TB) leukemia; IGROV1 ovarian; MALME-3M melanoma; NCI-H460 lung; SNB-75 CNS; SF-295 CNS.
Holding throughout (assay): DTP human tumour cell line panel, 48 h

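Dose response: 5 concentrations. Exposure: 48 h. Format: 96-well plates. Endpoint: linear interpolation; highest concentration if not reached. TGI denotes the concentration required for complete inhibition of growth.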

One may read the TGI as the concentration giving total growth inhibition.

In the case of `CCOC(=O)c1c2c(c(O)c3ccccc3c(O)n(Cc3ccccc3)c1C)C(=O)C=CC2=O`, the TGI with HCC-2998 colon was over 100 µM; with NCI-H522 lung, 92.7 µM; in the test with UO-31 renal, over 100 µM; in the test with PC-3 prostate, over 100 µM; in the test on HL-60(TB) leukemia, over 100 µM; in the test on IGROV1 ovarian, over 100 µM. For the same compound, the total growth inhibition concentration (TGI) with MALME-3M melanoma, in the test on NCI-H460 lung, in the test with SNB-75 CNS and in the test with SF-295 CNS was over 100 µM in each case.

Regarding `Cc1ccc2nc(C=Nc3ccc(Cl)cc3)cc(C)c2c1`, the concentration for total growth inhibition (TGI) in the test on HCC-2998 colon was 6.62 µM; with NCI-H522 lung it was 26.6 µM; in the test on UO-31 renal, 7.91 µM; in the test with PC-3 prostate, over 76.5 µM; in the test on HL-60(TB) leukemia it was 16.7 µM; with IGROV1 ovarian, 31.3 µM. Further, the TGI was over 64.9 µM in the test on MALME-3M melanoma, over 70.6 µM in the test with NCI-H460 lung, 57.5 µM in the test on SNB-75 CNS and 19.3 µM with SF-295 CNS.

For `COc1cc2c(cc1OCCCCOc1cc3c(cc1OC)C(=O)N1CCC[C@H]1C(=O)N3)N=C[C@@H]1CCCN1C2=O`, the TGI in the test on HCC-2998 colon turned out to be 26.3 µM; in the test with NCI-H522 lung it was 3.24 µM; in the test on UO-31 renal it was 28 µM; in the test with PC-3 prostate, 19.4 µM; in the test on HL-60(TB) leukemia, 37.3 µM; with IGROV1 ovarian, 20.7 µM. The TGI turned out to be 22.5 µM with MALME-3M melanoma, 43.9 µM in the test on NCI-H460 lung, 18.1 µM with SNB-75 CNS and 26 µM in the test on SF-295 CNS.

On to `O=C(CCCl)NNC1=NCCCN1`, for which the TGI in the test on HCC-2998 colon, in the test on NCI-H522 lung, in the test on UO-31 renal, in the test with PC-3 prostate, in the test with HL-60(TB) leukemia and in the test on IGROV1 ovarian was over 100 µM throughout. In addition, the TGI with MALME-3M melanoma, with NCI-H460 lung, in the test on SNB-75 CNS and with SF-295 CNS was over 100 µM each time.

As for `COc1ccc2nc3ccc(OC)cc3c(SCc3ccccc3)c2c1`, the TGI in the test with HCC-2998 colon was over 100 µM; in the test with NCI-H522 lung, over 100 µM; in the test with UO-31 renal, over 35.7 µM; in the test with PC-3 prostate it was over 100 µM; in the test on HL-60(TB) leukemia it was over 100 µM; in the test on IGROV1 ovarian, over 100 µM. Further, the TGI in the test on MALME-3M melanoma, with NCI-H460 lung, with SNB-75 CNS and in the test on SF-295 CNS was over 100 µM throughout.

Regarding `CCOc1cc2oc(C)cc(=O)c2c(OC)c1C=Nc1ccc(Cn2c(C)nc3ccccc32)cc1`, the TGI in the test with HCC-2998 colon, in the test with NCI-H522 lung, in the test on UO-31 renal, in the test on PC-3 prostate, in the test with HL-60(TB) leukemia and in the test on IGROV1 ovarian was over 100 µM each time. Moreover, the TGI in the test with MALME-3M melanoma, in the test on NCI-H460 lung, in the test with SNB-75 CNS and in the test on SF-295 CNS was over 100 µM throughout.

As for `COC1OC(COC(=O)c2cc(O)c(O)c(O)c2)C(OC(=O)c2cc(O)c(O)c(O)c2)C(OC(=O)c2cc(O)c(O)c(O)c2)C1OC(=O)c1cc(O)c(O)c(O)c1` (stereo not given), the concentration for total growth inhibition (TGI) in the test on HCC-2998 colon was over 100 µM; with NCI-H522 lung, 50.4 µM; with UO-31 renal it was over 100 µM; in the test on PC-3 prostate it was over 100 µM; with HL-60(TB) leukemia, 50.1 µM; with IGROV1 ovarian it was over 100 µM. In addition, the TGI in the test on MALME-3M melanoma, with NCI-H460 lung, in the test on SNB-75 CNS and in the test with SF-295 CNS was over 100 µM throughout.

With `CCOP(=O)(OCC)/C(C#N)=C/c1cnc[nH]1`, the concentration for total growth inhibition (TGI) in the test on HCC-2998 colon, in the test with NCI-H522 lung, in the test with UO-31 renal, in the test on PC-3 prostate, in the test with HL-60(TB) leukemia and with IGROV1 ovarian was over 100 µM throughout. Also, the TGI in the test on MALME-3M melanoma, in the test on NCI-H460 lung, with SNB-75 CNS and in the test with SF-295 CNS was over 100 µM each time.

As to `COc1cc(-c2[o+]c3cc(O)cc(O)c3cc2O)cc(O)c1O`, the concentration for total growth inhibition (TGI) with HCC-2998 colon, in the test on NCI-H522 lung, in the test on UO-31 renal, in the test on PC-3 prostate, with HL-60(TB) leukemia and in the test with IGROV1 ovarian was over 100 µM in each case. In addition, the TGI in the test with MALME-3M melanoma, with NCI-H460 lung, with SNB-75 CNS and in the test with SF-295 CNS was over 100 µM in each case.

With `Cc1cccc(-c2cc(=O)c3c(C)cc(C)nc3[nH]2)c1`, the TGI with HCC-2998 colon was over 48.1 µM; with NCI-H522 lung, 2.85 µM; in the test with UO-31 renal it was over 100 µM; in the test on PC-3 prostate it was over 100 µM; in the test with HL-60(TB) leukemia it was 4.34 µM; with IGROV1 ovarian, over 100 µM. Further, the concentration for total growth inhibition (TGI) is over 100 µM in the test on MALME-3M melanoma, 16.6 µM in the test on NCI-H460 lung, 7.36 µM with SNB-75 CNS and over 63.8 µM in the test with SF-295 CNS.

For the compound `c1ccc2c(c1)NC1(N3CCCCC3)CCCCC21` (stereo not given), the TGI is over 100 µM with HCC-2998 colon; over 100 µM in the test on NCI-H522 lung; over 100 µM with UO-31 renal; over 100 µM in the test on PC-3 prostate; 82.2 µM with HL-60(TB) leukemia; over 100 µM in the test on IGROV1 ovarian. The concentration for total growth inhibition (TGI) with MALME-3M melanoma, in the test on NCI-H460 lung, in the test on SNB-75 CNS and in the test with SF-295 CNS was over 100 µM each time.

(Values after PubChem BioAssay (NCI).)
